One assay relates to RKO cells. The experiment in a line: Western blot analysis in RKO colorectal cancer cells. In kind it is cell-based, human. The method, then:
FIG. 5. Various cancer cells were treated for 24 h as shown and tested by Western blot analysis.
(D) Inhibition of HDAC6 protects it from degradation by the addition of a pro-apoptotic agent (staurosporine, ST).
The total amount of vinculin serves as a loading control; Proof of tubulin acetylation serves as proof of the treatment accuracy. The loss of the caspase-3 corresponds to the induction of apoptosis (programmed cell death).
Human colon cancer cell lines RKO (ATCC Accession No: CRL-2577) and HCT-116 (DSMZ Accession No: ACC-581).
The assay is carried out as described in Buchwald et al. 2010 and Buchwald et al. 2013. Briefly, cells were collected and lysed in NET-N buffer (150 mM NaCl, 1 mM EDTA, 50 mM Tris-HCl (pH 7.8), 0.5% Nonidet P-40 (NP-40), 1 mM phenylmethylsulfonyl fluoride, 0.5 mg/ml leupeptin and 0.5 mg/ml pepstatin) followed by mild sonification on ice. Protein lysate ([…]) was boiled in Laemmli buffer and separated on SDS-polyacrylamide gel electrophoresis for western blotting with specific antibodies. All lysates were assessed by Bradford assay for protein concentrations.
Background: Immunoblotting shows a protein as a band on a membrane.

The subject of a further assay is nuclear proteins. The experiment in a line: Nuclear extracts versus cytoplasm after MARB1 stimulation, Western blot. The format is cell-based. The method, then: Nuclear extracts were generated and compared to the cytoplasm by western blotting. 6 Mio cells were seeded on a 10 cm dish and incubated 2 h in the medium for adaption. SAHA and […] are pan-HDACi. HSP90 was used as a loading control for the cytoplasm. n=2
SDS-PAGE and Western Blot Analysis Method b
Western Blot analysis method b was used for the blots illustrated in FIGS. 6 to 9 and 11: Equal amounts of proteins were separated with a sodium dodecyl sulfate-polyacrylamide gel electrophoresis (SDS-PAGE) using an electrophoresis buffer by Laemmli with 1% SDS. The proteins were transferred to a nitrocellulose membrane by western blotting using a wet blot chamber. The blots were incubated with the primary antibody, after blocking the membrane for 1 h in 5% non-fat dry milk in tris-buffered saline (TBS) containing 0.05% Tween-20. Fluorescence coupled secondary antibodies (LI-COR) were used and the signal was measured on the Odyssey to detect the proteins.
The cells for nuclear extracts were harvested on ice after stimulation and washed with cold PBS. The pellet was resuspended in lysis buffer A (10 mM HEPES pH 7.9, 1.5 mM MgCl2, 10 mM KCl, 1 mM DTT and protease and phosphatase inhibitor) and incubated for 15 min on ice followed by addition of NP-40 to a final concentration of 1%. […] The protein level was assessed by Bradford assay (Goder et al. 2015).

Data on one compound can be found in patent US10106540B2, “HDAC6 inhibitors and their uses” (Universität Regensburg, priority 2014, dated 2018).

`CN1C(=O)C2CN(Cc3c2c2ccccc2n3Cc2ccc(C(=O)NO)cc2)C1=O` (stereo not drawn) [MARB1, N-Hydroxy-4-((4-methyl-3,5-dioxo-3,4,5,6-tetrahydro-2,6-methano[1,3]diazocino[5,6-b]indol-11(1H)-yl)methyl)benzamide]: in the assay on RKO cells (0.5 μM, 24 h), the hyperacetylation of tubulin entry is reported as “sufficient to induce hyperacetylation of tubulin”. In addition, in the assay on RKO cells (with staurosporine), the “HDAC6 loss in staurosporin (ST)-treated cells” value is “protects ST-treated RKO cells”. The “effects on nuclear proteins” value with nuclear proteins is listed as “no detectable effects”.
